# Results: ChEMBL document CHEMBL5126592, “Design, synthesis and activity against drug-resistant bacteria evaluation of C-20, C-23 modified 5-O-mycaminosyltylonolide derivatives” (Eur J Med Chem, 2022)
# Key:
# Type in all cases: functional
# Conditions in all cases: time 16-20 hrs
# Staphylococcus aureus = assay: Antibacterial activity against Staphylococcus aureus ATCC 25923 incubated for 16 to 20 hrs by broth microdilution method
# Klebsiella pneumoniae = assay: Antibacterial activity against Klebsiella pneumoniae ATCC 13883 incubated for 16 to 20 hrs by broth microdilution method
# Cronobacter sakazakii = assay: Antibacterial activity against Cronobacter sakazakii ATCC 29544 incubated for 16 to 20 hrs by broth microdilution method
# Escherichia coli = assay: Antibacterial activity against Escherichia coli ATCC 25922 incubated for 16 to 20 hrs by broth microdilution method
Compound,MIC (Staphylococcus aureus) [µg/mL],MIC (Klebsiella pneumoniae) [µg/mL],MIC (Cronobacter sakazakii) [µg/mL],MIC (Escherichia coli) [µg/mL]
CC[C@H]1OC(=O)C[C@@H](O)[C@H](C)[C@@H](O[C@@H]2O[C@H](C)[C@@H](O)[C@H](N(C)C)[C@H]2O)[C@@H](CCN(Cc2cn(-c3cnc4ccccc4c3)nn2)Cc2ccco2)C[C@@H](C)C(=O)/C=C/C(C)=C/[C@@H]1CN1CCC(O)CC1,4,16,16,8
CC[C@H]1OC(=O)C[C@@H](O)[C@H](C)[C@@H](O[C@@H]2O[C@H](C)[C@@H](O)[C@H](N(C)C)[C@H]2O)[C@@H](CCN(Cc2ccc(C(F)(F)F)cc2)Cc2cn(-c3cnc4ccccc4c3)nn2)C[C@@H](C)C(=O)/C=C/C(C)=C/[C@@H]1CI,4,32,32,32
CC[C@H]1OC(=O)C[C@@H](O)[C@H](C)[C@@H](O[C@@H]2O[C@H](C)[C@@H](O)[C@H](N(C)C)[C@H]2O)[C@@H](CCN(Cc2ccc(O)c(OC)c2)Cc2cn(-c3cnc4ccccc4c3)nn2)C[C@@H](C)C(=O)/C=C/C(C)=C/[C@@H]1CO,0.5,16,16,16
CC[C@H]1OC(=O)C[C@@H](O)[C@H](C)[C@@H](O[C@@H]2O[C@H](C)[C@@H](O)[C@H](N(C)C)[C@H]2O)[C@@H](CCN(Cc2ccc(OC)cc2)Cc2cn(-c3cnc4ccccc4c3)nn2)C[C@@H](C)C(=O)/C=C/C(C)=C/[C@@H]1CI,2,32,32,16
CC[C@H]1OC(=O)C[C@@H](O)[C@H](C)[C@@H](O[C@@H]2O[C@H](C)[C@@H](O)[C@H](N(C)C)[C@H]2O)[C@@H](CCN(Cc2cn(-c3cnc4ccccc4c3)nn2)Cc2nccs2)C[C@@H](C)C(=O)/C=C/C(C)=C/[C@@H]1CO,0.5,32,32,32
CC[C@H]1OC(=O)C[C@@H](O)[C@H](C)[C@@H](O[C@@H]2O[C@H](C)[C@@H](O)[C@H](N(C)C)[C@H]2O)[C@@H](CCN(Cc2ccc(N(C)C)cc2)Cc2cn(-c3cnc4ccccc4c3)nn2)C[C@@H](C)C(=O)/C=C/C(C)=C/[C@@H]1CN1CCC(O)CC1,2,16,32,16

# Now from value to compound:
MIC (Staphylococcus aureus) [µg/mL],MIC (Klebsiella pneumoniae) [µg/mL],MIC (Cronobacter sakazakii) [µg/mL],MIC (Escherichia coli) [µg/mL],Compound
0.5,4,32,8,CC[C@H]1OC(=O)C[C@@H](O)[C@H](C)[C@@H](O[C@@H]2O[C@H](C)[C@@H](O)[C@H](N(C)C)[C@H]2O)[C@@H](CCN(Cc2ccc(OC)cc2)Cc2cn(-c3cnc4ccccc4c3)nn2)C[C@@H](C)C(=O)/C=C/C(C)=C/[C@@H]1CN1CCCCCC1
0.5,8,16,8,CCCN(C)C[C@H]1/C=C(C)/C=C/C(=O)[C@H](C)C[C@H](CCN(C)Cc2cn(-c3cnc4ccccc4c3)nn2)[C@H](O[C@@H]2O[C@H](C)[C@@H](O)[C@H](N(C)C)[C@H]2O)[C@@H](C)[C@H](O)CC(=O)O[C@@H]1CC
0.5,32,32,32,CC[C@H]1OC(=O)C[C@@H](O)[C@H](C)[C@@H](O[C@@H]2O[C@H](C)[C@@H](O)[C@H](N(C)C)[C@H]2O)[C@@H](CCN(Cc2cn(-c3cnc4ccccc4c3)nn2)Cc2cncs2)C[C@@H](C)C(=O)/C=C/C(C)=C/[C@@H]1CO
0.5,32,32,16,CC[C@H]1OC(=O)C[C@@H](O)[C@H](C)[C@@H](O[C@@H]2O[C@H](C)[C@@H](O)[C@H](N(C)C)[C@H]2O)[C@@H](CCN(Cc2cn(-c3cnc4ccccc4c3)nn2)Cc2c(OC)cc(OC)cc2OC)C[C@@H](C)C(=O)/C=C/C(C)=C/[C@@H]1CO
0.125,16,32,8,CC[C@H]1OC(=O)C[C@@H](O)[C@H](C)[C@@H](O[C@@H]2O[C@H](C)[C@@H](O)[C@H](N(C)C)[C@H]2O)[C@@H](CCN(Cc2cn(-c3cnc4ccccc4c3)nn2)Cc2ccco2)C[C@@H](C)C(=O)/C=C/C(C)=C/[C@@H]1CO
0.125,16,32,16,CC[C@H]1OC(=O)C[C@@H](O)[C@H](C)[C@@H](O[C@@H]2O[C@H](C)[C@@H](O)[C@H](N(C)C)[C@H]2O)[C@@H](CCN(Cc2cn(-c3cnc4ccccc4c3)nn2)Cc2cccs2)C[C@@H](C)C(=O)/C=C/C(C)=C/[C@@H]1CO
